Source: patent publication US10053455B2, “Diazaspiroalkaneone-substituted oxazole derivatives as spleen tyrosine kinase inhibitors” (AB SCIENCE, priority 2014, dated 2018)

Target: SYK kinase (Homo sapiens (Human), UniProt P43405)
Experiment: In vitro SYK inhibition assay (HTRF kinase assay)
Type: biochemical
Conditions: read-out: Syk (IC50)
Procedure: SYK kinase was purified as a full length protein in a baculovirus system near homogeneity. All kinase assays were performed with the Kinase TK (tyrosine kinase) HTRF (Homogeneous Time Resolved Fluorescence) assay developed by Cisbio international. […] Reactions were initiated upon introduction of the enzyme and terminated with the addition of one reaction volume (25 μl) of HTRF detection buffer. Plates were incubated for one hour at room temperature and the time resolved Fluorescence resonance energy transfer signal was measured in a Pherastar FS microplate reader (BMG Labtech).
Most of the kinases tested in this study were cloned, expressed and purified in the facilities of the inventors. They were expressed either as N-terminus hexahistidine-, hexahistidine-asparagine- or GST-tagged enzymes in a baculovirus or in a Colibacille expression system. Remaining enzymes (JAKs) were purchased from Millipore or Proqinase. For each enzyme, steady state kinetic parameters were determined and validated with known inhibitors.
The analysis of the effect of compounds on kinase activity was assessed with the HTRF® KinEASE assay (Cisbio International), an immuno-assay based on the quantification of the level of phosphorylation of a biotinylated peptide substrate using anti-phospho-specific antibody labeled with Europium (Eu^3+) cryptate. This assay comprises two steps: —an enzymatic step, during which the peptide substrate, the kinase, ATP, Mg^2+ and/or Mn^2+ are incubated with varying concentration of drug (from 0 to 10 μM); —a detection step, at the end of the reaction (stopped by addition of EDTA which chelates Mg^2+), the antibody anti-phospho peptide-Eu^3+ (emission 620 nm) and streptavidin XL-665 (emission 665 nm) are added to the reaction mix. After incubation, the obtained signal is proportional to the concentration of phosphorylated peptide in the sample. All measurements were performed on a BMG Labtech Pherastar FS apparatus. Results are expressed in delta fluorescence (DF) unit defined as follow DF %=[(ratio−ratio blank)/(ratio blank)]*100, where ratio=(665 nm/620 nm)*10^4. Each experiment was performed in duplicate and repeated two or three times.

**Q.** How did the IC50 turn out when `Cc1ccnc(Nc2cccc(-c3cnc(N4CCNC(=O)C45CC5)o3)c2)c1` [Compound 021, 4-{5-[3-(4-Methyl-pyridin-2-ylamino)-phenyl]-oxazol-2-yl}-4,7-diaza-spiro[2.5]octan-8-one] was run?
**A.** Its IC50 is 0.5 to 2 µM.

**Q.** Which IC50 does the source give for `O=C1NCCN(c2ncc(-c3cccc(Nc4nccc(C(F)(F)F)n4)c3)o2)C12CCC2` [Compound 016, 5-{5-[3-(4-Trifluoromethyl-pyrimidin-2-ylamino)-phenyl]-oxazol-2-yl}-5,8-diaza-spiro[3.5]nonan-9-one] here?
**A.** The IC50 was < 0.5 µM.

**Q.** For `O=C1NCCN(c2ncc(-c3cc(Nc4nccc(-c5cccs5)n4)ccc3OCCN3CCOCC3)o2)C12CC2` [Compound 004, 4-{5-[2-(2-Morpholin-4-yl-ethoxy)-5-(4-thiophen-2-yl-pyrimidin-2-ylamino)-phenyl]-oxazol-2-yl}-4,7-diaza-spiro[2.5]octan-8-one], which IC50 is on record?
**A.** The IC50 was < 0.5 µM.

**Q.** How did the IC50 turn out when `Cc1ccnc(Nc2cc(CN3CCOCC3)cc(-c3cnc(N4CCNC(=O)C45CC5)o3)c2)n1` [Compound 006, 4-{5-[3-(4-Methyl-pyrimidin-2-ylamino)-5-morpholin-4-ylmethyl-phenyl]-oxazol-2-yl}-4,7-diaza-spiro[2.5]octan-8-one] was run?
**A.** Its IC50 is < 0.5 µM.

**Q.** For `O=C1NCCN(c2ncc(-c3cc(Nc4nccc(C(F)(F)F)n4)ccc3OCCN3CCOCC3)o2)C12CC2` [Compound 017, 4-{5-[2-(2-Morpholin-4-yl-ethoxy)-5-(4-trifluoromethyl-pyrimidin-2-ylamino)-phenyl]-oxazol-2-yl}-4,7-diaza-spiro[2.5]octan-8-one], which IC50 is on record?
**A.** Its IC50 is < 0.5 µM.

**Q.** How did the IC50 turn out when `CC(C)c1ccnc(Nc2cccc(-c3cnc(N4CCNC(=O)C45CCC5)o3)c2)n1` [Compound 011, 5-{5-[3-(4-Isopropyl-pyrimidin-2-ylamino)-phenyl]-oxazol-2-yl}-5,8-diaza-spiro[3.5]non-9-one] was run?
**A.** Its IC50 is < 0.5 µM.

**Q.** With `O=C1NCCN(c2ncc(-c3cccc(Nc4nccc(-c5cccs5)n4)c3)o2)C12CC2` [Compound 015, 4-{5-[3-(4-Thiophen-2-yl-pyrimidin-2-ylamino)-phenyl]-oxazol-2-yl}-4,7-diaza-spiro[2.5]octan-8-one] as the compound, how does the IC50 read?
**A.** The IC50 was < 0.5 µM.

**Q.** For `Cc1ccnc(Nc2ccc(F)c(-c3cnc(N4CCNC(=O)C45CC5)o3)c2)n1` [Compound 018, 4-{5-[2-Fluoro-5-(4-methyl-pyrimidin-2-ylamino)-phenyl]-oxazol-2-yl}-4,7-diaza-spiro[2.5]octan-8-one], which IC50 is on record?
**A.** Its IC50 is < 0.5 µM.

**Q.** For `O=C1NCCN(c2ncc(-c3cccc(Nc4nccc(C(F)(F)F)n4)c3)o2)C12CC2` [Compound 008, 4-{5-[3-(4-Trifluoromethyl-pyrimidin-2-ylamino)-phenyl]-oxazol-2-yl}-4,7-diaza-spiro[2.5]octan-8-one], which IC50 is on record?
**A.** The IC50 was < 0.5 µM.

**Q.** `Cc1cc(Nc2nccc(C(F)(F)F)n2)cc(-c2cnc(N3CCNC(=O)C34CC4)o2)c1` [Compound 005, 4-{5-[3-Methy1-5-(4-trifluoromethyl-pyrimidin-2-ylamino)-phenyl]-oxazol-2-yl}-4,7-diaza-spiro[2.5]octan-8-one] was tested. Which IC50 did it give?
**A.** Its IC50 is < 0.5 µM.

**Q.** For `O=C1NCCN(c2ncc(-c3cccc(Nc4nccc(N5CCOCC5)n4)c3)o2)C12CC2` [Compound 014, 4-{5-[3-(4-Morpholin-4-yl-pyrimidin-2-ylamino)-phenyl]-oxazol-2-yl}-4,7-diaza-spiro[2.5]octan-8-one], which IC50 is on record?
**A.** The IC50 was > 2 µM.

**Q.** For `Cc1ccnc(Nc2cccc(-c3cnc(N4CCNC(=O)C45CC5)o3)c2C)n1` [Compound 020, 4-{5-[2-Methyl-3-(4-methyl-pyrimidin-2-ylamino)-pheny]-oxazol-2-yl}-4,7-diaza-spiro[2.5]octan-8-one], which IC50 is on record?
**A.** The IC50 was > 2 µM.

**Q.** How did the IC50 turn out when `CCc1ccnc(Nc2cccc(-c3cnc(N4CCNC(=O)C45CC5)o3)c2)n1` [Compound 007, 4-{5-[3-(4-Ethyl-pyrimidin-2-ylamino)-phenyl]-oxazol-2-yl}-4,7-diaza-spiro[2.5]octan-8-one] was run?
**A.** The IC50 was < 0.5 µM.

**Q.** With `O=C1NCCN(c2ncc(-c3cccc(Nc4nccs4)c3)o2)C12CC2` [Compound 022, 4-{5-[3-(Thiazol-2-ylamino)-phenyl]-oxazol-2-yl}-4,7-diaza-spiro[2.5]octan-8-one] as the compound, how does the IC50 read?
**A.** Its IC50 is < 0.5 µM.

**Q.** Which IC50 does the source give for `CC(C)c1ccnc(Nc2cccc(-c3cnc(N4CCNC(=O)C45CC5)o3)c2)n1` [Compound 013, 4-{5-[3-(4-Isopropyl-pyrimidin-2-ylamino)-phenyl]-oxazol-2-yl}-4,7-diaza-spiro[2.5]octan-8-one] here?
**A.** Its IC50 is < 0.5 µM.

**Q.** How did the IC50 turn out when `O=C1NCCN(c2ncc(-c3cccc(Nc4nccc(-c5ccccc5)n4)c3)o2)C12CC2` [Compound 010, 4-{5-[3-(4-Phenyl-pyrimidin-2-ylamino)-phenyl]-oxazol-2-yl}-4,7-diaza-spiro[2.5]octan-8-one] was run?
**A.** The IC50 was < 0.5 µM.

**Q.** `O=C1NCCN(c2ncc(-c3cc(CN4CCOCC4)cc(Nc4nccc(C(F)(F)F)n4)c3)o2)C12CC2` [Compound 003, 4-{5-[3-Morpholin-4-ylmethy1-5-(4-trifluoromethyl-pyrimidin-2-ylamino)-phenyl]-oxazol-2-yl}-4,7-diaza-spiro[2.5]octan-8-one] was tested. Which IC50 did it give?
**A.** Its IC50 is < 0.5 µM.

**Q.** Which IC50 does the source give for `Cc1ccnc(Nc2cccc(-c3cnc(N4CCNC(=O)C45CCCC5)o3)c2)n1` [Compound 009, 6-{5-[3-(4-Methyl-pyrimidin-2-ylamino)-phenyl]-oxazol-2-yl}-6,9-diaza-spiro[4.5]decan-10-one] here?
**A.** Its IC50 is < 0.5 µM.

**Q.** For `Cc1ccnc(Nc2cccc(-c3cnc(N4CCNC(=O)C45CCC5)o3)c2)n1` [Compound 012, 5-{5-[3-(4-Methyl-pyrimidin-2-ylamino)-phenyl]-oxazol-2-yl}-5,8-diaza-spiro[3.5]nonan-9-one], which IC50 is on record?
**A.** Its IC50 is < 0.5 µM.

**Q.** Which IC50 does the source give for `N#Cc1ccnc(Nc2cccc(-c3cnc(N4CCNC(=O)C45CC5)o3)c2)n1` [Compound 002, 2-{3-[2-(8-Oxo-4,7-diaza-spiro[2.5]oct-4-yl)-oxazol-5-yl]-phenylamino}-pyrimidine-4-carbonitrile] here?
**A.** Its IC50 is < 0.5 µM.

Test system: Salmonella typhimurium strain TA98
Experiment: AMES mutagenic assay, TA98 strain
Conditions: Salmonella typhimurium, 0.25 μg per well
Procedure: Mutagenic activity of test compounds and their metabolites (produced by rat liver S9 fraction) was evaluated in the Salmonella typhimurium strains TA100 and TA98 according to the Ames assay (Toxicology in vitro, (2001), 15: 105-114). […] The results are expressed as a mutagenicity ratio in comparison to solvent controls.
The results are expressed as a ratio of the number of colonies over the number of colonies in the negative control (DMSO).

**Q.** With `O=[N+]([O-])c1ccc2c(c1)Cc1ccccc1-2` [Compound 2-NF, 2-Nitrofluorene, reference compound] as the compound, how does the “Mean revertant colony counts” value read?
**A.** The value was 59.7.

Same assay, conditions: TA98, absence of S-9, 0.25 μg per well (positive control)

**Q.** How did the Ratio treated/solvent turn out when `O=[N+]([O-])c1ccc2c(c1)Cc1ccccc1-2` [Compound 2-NF, 2-Nitrofluorene, reference compound] was run?
**A.** Its Ratio treated/solvent is 13.8.
